Source: patent publication US6436939B2, “Method for using 2-aryloxyalkylaminobenzoxazoles and 2-aryloxyalkylaminobenzothiazoles as H3 antagonists” (Ortho-McNeil Pharmaceutical, Inc., priority 2000, dated 2002)
Where a name gives a salt, the structure may show the parent alone.

How the values were obtained:
[1] = target: T1, human histamine H3 receptor (Homo sapiens, UniProt Q9Y5N1); assay: [3H]-N-methylhistamine binding to membranes of H3 receptor-expressing SK-N-MC cells; conditions: 0.8 nM [3H]-N-methylhistamine, 45 minutes at 25° C., SK-N-MC cell membranes; KI from IC50 with KD 800 pM
T1 construct: expressed in transfected cells; membranes prepared
Protocol: In the present invention receptor binding was determined using the human histamine H3 receptor (See Lovenberg et al Mol. Pharmacol. 1999, 1107). Screening using the human receptor is particularly important for the identification of new therapies for the treatment of human disease. Conventional binding assays for example are determined using rat synaptosomes (Garbarg et al J. Pharmacol. Exp. Ther. 1992, 263, 304), rat cortical membranes (West et al Mol. Pharmacol. 1990, 610), and guinea pig brain (Korte et al Biochem. Biophys. Res. Commun. 1990, 978). Only limited studies have been performed previously using human tissue but these allude to significant differences in the pharmacology of rodent and primate receptors (West et al Eur. J. Pharmacol. 1999, 233).
A 10 cm tissue culture dish with a confluent monolayer of SK-N-MC cells was split two days prior to transfection. Using sterile technique the media was removed and the cells were detached from the dish by the addition of trypsin. One fifth of the cells were then placed onto a new 10 cm dish. Cells were grown in a 37° C. incubator with 5% CO2 in Minimal Essential Media Eagle with 10% Fetal Bovine Serum. After two days cells were approximately 80% confluent. These were removed from the dish with trypsin and pelleted in a clinical centrifuge. The pellet was then re-suspended in 400 μL complete media and transferred to an electroporation cuvette with a 0.4 cm gap between the electrodes (Bio-Rad #165-2088). One microgram supercoiled H3 receptor CDNA was added to the cells and mixed. The voltage for the electroporation was set at 0.25 kV, the capacitance is set at 960 μF.
After electroporation the cells were diluted into 10 mL complete media and plated onto four 10 cm dishes. Due to the variability in the efficiency of electroporation, four different concentrations of cells were plated. The ratios used were: 1:20, 1:10, and 1:5, with the remainder of the cells being added to the fourth dish. The cells were allowed to recover for 24 hours before adding the selection media (complete media with 600 μg/ml G418). After 10 days dishes were analyzed for surviving colonies of cells. Dishes with well-isolated colonies were used. Cells from individual colonies were isolated and tested. SK-N-MC cells were used because they give efficient coupling for inhibition of adenylate cyclase. The clones that gave the most robust inhibition of adenylate cyclase in response to histamine were used for further study.
Cell pellets from histamine H3 receptor-expressing SK-N-MC cells were homogenized in 20 mM TrisHCl/0.5 mM EDTA. Supernatants from a 800 g spin were collected, reccentrifuged at 30,000 g for 30 minutes. Pellets were rehomogenized in 50 mM Tris/5 mM EDTA (pH 7.4). Membranes were incubated with 0.8 nM [^3H]-N-methylhistamine plus/minus test compounds for 45 minutes at 25° C. and harvested by rapid filtration over GF/C glass fiber filters (pretreated with 0.3% polyethylenimine) followed by four washes with ice cold buffer. Filters were dried, added to 4 mL scintillation cocktail and then counted on a liquid scintillation counter. Non-specific binding was defined with 10 μM histamine according to Chen and Prusoff, Biochem. Pharmacol. 1973, 22:3099. KI values were calculated based on a KD of 800 pM and a ligand concentration ([L]) of 800 pM according to the formula: […]
KI values are provided in the examples above.

T1 sequence (Q9Y5N1 whole entry): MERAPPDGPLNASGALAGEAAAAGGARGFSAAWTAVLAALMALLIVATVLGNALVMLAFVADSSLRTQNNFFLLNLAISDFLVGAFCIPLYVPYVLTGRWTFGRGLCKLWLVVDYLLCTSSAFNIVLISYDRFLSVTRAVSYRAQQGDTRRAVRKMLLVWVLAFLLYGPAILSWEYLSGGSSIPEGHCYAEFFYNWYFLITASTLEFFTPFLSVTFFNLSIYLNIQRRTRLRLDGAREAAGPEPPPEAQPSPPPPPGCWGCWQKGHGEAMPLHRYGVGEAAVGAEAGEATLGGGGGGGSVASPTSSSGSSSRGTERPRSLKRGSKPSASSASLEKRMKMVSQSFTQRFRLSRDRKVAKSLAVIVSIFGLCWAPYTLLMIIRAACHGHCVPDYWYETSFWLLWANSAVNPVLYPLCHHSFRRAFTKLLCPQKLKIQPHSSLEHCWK

Row | SMILES | melting point [°C] | Ki [1] [µM]
1 | CCN(CC)CCCCOc1ccc(/C=C/c2nc3ccccc3o2)cc1 [Example 7, (E)-2-[2-(4-Diethylaminobutoxyphenyl)ethenyl]benzoxazole] |  | 0.048
2 | C(=C\c1nc2ccccc2o1)/c1ccc(OCCCCN2CCCC2)cc1 (as salt: HCl) [Example 9, (E)-2-[2-(4-Pyrrolinobutoxyphenyl)ethenyl]benzoxazole] | 229 to 232 | 
3 | C(=C\c1nc2ccccc2s1)/c1ccc(OCCCN2CCCCC2)cc1 (as salt: HCl) [Example 3, (E)-2-[2-(4-Piperidinopropoxyphenyl)ethenyl]benzothiazole] | 215 to 217 | 
4 | C(=C\c1nc2ccccc2o1)/c1ccc(OCCCN2CCCCC2)cc1 [Example 4, (E)-2-[2-[4-(3-Piperidinopropoxy)phenyl]ethenyl]benzoxazole] |  | 0.013
5 | C(=C\c1nc2ccccc2s1)/c1ccc(OCCCN2CCCCC2)cc1 [Example 3, (E)-2-[2-(4-Piperidinopropoxyphenyl)ethenyl]benzothiazole] |  | 0.015
6 | CCCN(CCC)CCCCOc1c(C)cc(/C=C/c2nc3ccccc3s2)cc1C [Example 12, (E)-2-[2-(3,5-Dimethyl-4-dipropylaminobutoxyphenyl)ethenyl]benzothiazole] |  | 1
7 | C(=C\c1nc2ccccc2o1)/c1ccc(OCCCCN2CCCCC2)cc1 (as salt: HCl) [Example 6, (E)-2-[2-(4-Piperidinobutoxyphenyl)ethenyl]benzoxazole] | 230 to 232 | 
8 | CCCN(CCC)CCCOc1ccc(-c2nc3ccccc3s2)cc1 [Example 11, 2-(4-Dipropylaminopropoxyphenyl)benzothiazole] |  | 0.173
9 | C(=C\c1nc2ccccc2o1)/c1ccc(OCCCCN2CCCCC2)cc1 [Example 6, (E)-2-[2-(4-Piperidinobutoxyphenyl)ethenyl]benzoxazole] |  | 0.034
10 | CCN(CC)CCCOc1ccc(/C=C/c2nc3ccccc3o2)cc1 [Example 8, (E)-2-[2-(4-Diethylaminopropoxyphenyl)ethenyl]benzoxazole] |  | 0.031
11 | CCN(CC)CCCCOc1ccc(/C=C/c2nc3ccccc3o2)cc1 (as salt: HCl) [Example 7, (E)-2-[2-(4-Diethylaminobutoxyphenyl)ethenyl]benzoxazole] | 219 to 220 | 
12 | C(=C\c1nc2ccccc2o1)/c1ccc(OCCCN2CCCCC2)cc1 (as salt: HCl) [Example 4, (E)-2-[2-[4-(3-Piperidinopropoxy)phenyl]ethenyl]benzoxazole] | 127 to 128 | 
13 | C(=C\c1nc2ccccc2o1)/c1ccc(OCCCCN2CCCC2)cc1 [Example 9, (E)-2-[2-(4-Pyrrolinobutoxyphenyl)ethenyl]benzoxazole] |  | 0.017

The next lines start with results.

Row | melting point [°C] | SMILES | Ki [1] [µM]
14 | 142 to 143 | CCCN(CCC)CCCOc1ccc(-c2nc3ccccc3s2)cc1 (as salt: HCl) [Example 11, 2-(4-Dipropylaminopropoxyphenyl)benzothiazole] | 
15 | 225 to 226 | CCN(CC)CCCOc1ccc(/C=C/c2nc3ccccc3o2)cc1 (as salt: HCl) [Example 8, (E)-2-[2-(4-Diethylaminopropoxyphenyl)ethenyl]benzoxazole] | 
